# “And” between values parts separate entries of the source, which are not always exact repeats. Equal values may be shown once.
# Key:
# Type in all cases: in vivo
# Settings in all cases: no safener
# [1] = system: Wheat; assay: Compatibility with crop plants, greenhouse, post-emergence, visual scoring
# Experimental: (§1) Seeds or rhizome pieces of monocotyledonous and dicotyledonous weeds were placed in sandy loam soil in plastic pots, covered with soil and cultivated in a greenhouse under good growth conditions. Three weeks after sowing, the test plants were treated at the 2- to 4-leaf stage. The compounds according to the invention, formulated as wettable powders or as emulsion concentrates, were sprayed onto the green parts of the plants in various dosages at a water application rate of 100 to 800 I/ha (converted). After the test plants had been left to stand in the greenhouse for 3 to 4 weeks under optimum growth conditions, the effect of the preparations was scored visually in comparison to untreated controls.
# (§2) In further greenhouse trials, seeds of a relatively large number of crop plants and weeds were placed into sandy loam soil and covered with soil. Some of the pots were immediately treated as described in section 1, the others were placed in a greenhouse until the plants had developed two to three true leaves and were then sprayed with various dosages of the herbicide/safener combinations according to the invention, as described in section 2. Four to five weeks after the application and standing time in the greenhouse, it was established by visual scoring that the herbicide/safener combinations tested, i.e. of 2-iodo-N-[(4-methoxy-6-methyl-1,3,5-triazin-2-yl)carbamoyl]benzenesulfonamide and the compounds of the formula (I) listed in table A, did, especially with the safeners of the compounds of the formulae S1-1, S1-6, S1-9, S2-1 and S3-1, benoxacor, furilazole, fluxofenim, not cause any damage to crop plants such as cotton, oilseed rape, sugar cane, sugar beet and also Gramineae crops such as barley, wheat, rye, millet, corn or rice when applied by the pre-emergence method or the post-emergence method.
# (§3) The results of selected trials with respect to the crop plant compatibility are shown below in an exemplary manner using as an example safeners improving 2-iodo-N-[(4-methoxy-6-methyl-1,3,5-triazin-2-yl)carbamoyl]benzenesulfonamide (A-0) or its Na^+ salt (A-2) in various crop plants, i.e. wheat, barley and corn.
# [2] = system: Corn; assay: as above
# Experimental: as §1, §2, §3
# [3] = system: Barley; assay: as above
# Experimental: as §1, §2, §3
# [4] = system: Corn; assay: Compatibility with crop plants, greenhouse, pre-emergence, visual scoring
# Text: Seeds or rhizome pieces of monocotyledonous and dicotyledonous weed plants were placed in sandy loam soil in cardboard pots and covered with soil. The active compounds (A) and (B), formulated as wettable powders or emulsion concentrates, were then applied to the surface of the covering soil as aqueous suspensions or emulsions in different dosages at a water application rate of 100 to 800 I/ha (converted).
# After the treatment, the pots were placed in a greenhouse and kept under good growth conditions for the weeds. Visual scoring of the plant damage or emergence damage was carried out after the test plants had emerged after a test period of 3 to 4 weeks, in comparison to untreated controls. […] The combinations of 2-iodo-N—[(4-methoxy-6-methyl-1,3,5-triazin-2-yl)carbamoyl]benzenesulfonamide and compounds of the formula (I) mentioned in table A especially with the safeners of the compounds of the formulae S1-1, S1-9, S2-1 and S3-1 have very good synergistic herbicidal activity against harmful plants such as Sinapis alba, Chrysanthemum segetum, Avena sativa, Stellaria media, Echinochloa crus-galli, Lolium multiflorum, Setaria viridis, Abutilon theophrasti, Amaranthus retroflexus and Panicum miliaceum when applied by the pre-emergence method at an application rate of 100 g or less of active substance per hectare. […]
# [5] = active compound 6.25 g of ai/ha
# [6] = active compound 12.5 g of ai/ha
smiles,measurement,setting,value
"COc1nc(C)nc(NC(=O)NS(=O)(=O)c2ccccc2I)n1 [Compound A-0, 2-iodo-N-[(4-methoxy-6-methyl-1,3,5-triazin-2-yl)carbamoyl]benzenesulfonamide]",Damage to the crop plant in %,[1]; [5],20%
same,Damage to the crop plant in %,[1]; [6],20%
same,Damage to the crop plant in %,[2]; [5],20%
same,Damage to the crop plant in %,[2]; active compound 25 g of ai/ha,50%
same,Damage to the crop plant in %,[3]; [5],20% and 10%
same,Damage to the crop plant in %,[3]; [6],20%
same,Damage to the crop plant in %,[4]; [6],65%
same,Damage to the crop plant in %,[4]; active compound 50 g of ai/ha,60%
